Reference: ChEMBL document CHEMBL1201862, “PubChem BioAssay data set” (2004)
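1) Cells in 96-well plates. 2) Compound, 48 h, 5 concentrations. 3) Linear interpolation between surrounding doses. 4) Unreached endpoint = highest concentration. GI50: concentration for 50% inhibition of growth.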 Calls of active or inactive are those of the source. No stated cut-off is given here; in the data, active = GI50 up to about 1.1 µM and inactive = higher.

Legend:
Experiment in all cases: NCI tumour cell line growth inhibition, 48 h
DLD-1 = system: DLD-1
DMS-114 = system: DMS-114
DMS-273 = system: DMS-273
KM-20L2 = system: KM-20L2
LXFL 529 = system: LXFL 529
M19-MEL = system: M19-MEL
RXF 631 = system: RXF 631
SNB-78 = system: SNB-78
XF498 = system: XF498

Row | SMILES | GI50 (DLD-1) | GI50 (DMS-114) | GI50 (DMS-273) | GI50 (KM-20L2) | GI50 (LXFL 529) | GI50 (M19-MEL) | GI50 (RXF 631) | GI50 (SNB-78) | GI50 (XF498)
1 | c1ccc(-c2csc3ncn4cnnc4c23)cc1 | 82.2 µM (inactive) | 57.9 µM (inactive) | 72.8 µM (inactive) | > 100 µM (inactive) | 92.9 µM (inactive) | > 100 µM (inactive) | 95.7 µM (inactive) | > 100 µM (inactive) | –
2 | CCCCCCCCCC(=O)CC(=O)c1c(O)cccc1O | 39.5 µM (inactive) | 30.1 µM (inactive) | 20.8 µM (inactive) | 33.8 µM (inactive) | 38.8 µM (inactive) | 38.5 µM (inactive) | – | 40 µM (inactive) | 15.3 µM (inactive)
3 | CN(N=O)C(=O)NC(CCCCNC(=O)OCc1ccccc1)C(=O)OCc1ccccc1 (configuration not stated) | 33.8 µM (inactive) | 29 µM (inactive) | 33.2 µM (inactive) | > 100 µM (inactive) | 28.5 µM (inactive) | 27.1 µM (inactive) | 19.9 µM (inactive) | 26.7 µM (inactive) | 13.2 µM (inactive)
4 | COc1nc2c(nc(N)n2C2OC(CO)C(O)C(O)C2O)c(=O)n1C (configuration not stated) | > 100 µM (inactive) | > 100 µM (inactive) | – | > 100 µM (inactive) | > 100 µM (inactive) | > 100 µM (inactive) | > 100 µM (inactive) | > 100 µM (inactive) | 75.3 µM (inactive)
5 | C=C1C(=O)OC2/C=C(\COC(C)=O)CCC(OC(C)=O)C3=CC(OC3=O)C12 (configuration not stated) | 2.33 µM (inactive) | 1.47 µM (inactive) | 6.81 µM (inactive) | 6.98 µM (inactive) | 1.67 µM (inactive) | – | 8.13 µM (inactive) | 2.67 µM (inactive) | 2.39 µM (inactive)
6 | O=C(/C=C/c1ccc(OCC(=O)N2CCN(c3ccccc3)CC2)cc1)c1ccccc1 | 7.31 µM (inactive) | – | 2.99 µM (inactive) | 8.95 µM (inactive) | 19.9 µM (inactive) | 11.3 µM (inactive) | – | > 44.5 µM (inactive) | –
7 | Oc1c(-c2ccccc2)nc2ccccn12 | > 100 µM (inactive) | > 100 µM (inactive) | > 100 µM (inactive) | > 100 µM (inactive) | > 100 µM (inactive) | > 100 µM (inactive) | – | > 100 µM (inactive) | > 100 µM (inactive)
8 | O=C1O[C@@H](c2ccc3c(c2)OCO3)C2C(=O)O[C@@H](c3ccc4c(c3)OCO4)C12 (some centres not stated) | – | > 100 µM (inactive) | > 100 µM (inactive) | > 100 µM (inactive) | – | > 100 µM (inactive) | > 100 µM (inactive) | > 100 µM (inactive) | 25.8 µM (inactive)
9 | Cc1cccc(NC(=O)CSc2nnc(-c3ccc(/N=C\c4ccc(Cl)cc4)cc3)o2)c1 | – | > 100 µM (inactive) | > 100 µM (inactive) | > 100 µM (inactive) | > 100 µM (inactive) | > 100 µM (inactive) | – | > 100 µM (inactive) | > 100 µM (inactive)
10 | Nc1nccc2c1ncn2C1C=C(CO)C(O)C1O (configuration not stated) | 63.4 µM (inactive) | 13.9 µM (inactive) | 25.6 µM (inactive) | > 87.1 µM (inactive) | > 89.1 µM (inactive) | 62.5 µM (inactive) | 83.6 µM (inactive) | > 100 µM (inactive) | > 46 µM (inactive)
11 | CNC(=S)/N=C(\N)N(C)C | > 100 µM (inactive) | > 100 µM (inactive) | > 100 µM (inactive) | > 100 µM (inactive) | > 100 µM (inactive) | > 100 µM (inactive) | – | > 100 µM (inactive) | > 100 µM (inactive)
12 | CCCCCCCCCCCCOC(=S)NCCCC | 29.4 µM (inactive) | 19.7 µM (inactive) | 18.3 µM (inactive) | 18.7 µM (inactive) | 28.1 µM (inactive) | 32.7 µM (inactive) | 20.7 µM (inactive) | 34.4 µM (inactive) | 16.4 µM (inactive)
13 | CC(C)C(=O)N1Cc2cc(Cl)cc(Cl)c2OC(=O)c2ccccc21 | 29.9 µM (inactive) | 30.1 µM (inactive) | 38.7 µM (inactive) | 23.7 µM (inactive) | 18.3 µM (inactive) | – | 40.3 µM (inactive) | 67.9 µM (inactive) | –
14 | Oc1ccc(Br)cc1/C=N/c1ccc(/N=C/c2cc(Br)ccc2O)cc1 | > 100 µM (inactive) | > 100 µM (inactive) | – | > 100 µM (inactive) | – | – | – | > 100 µM (inactive) | –
15 | CCOC(=O)[C@@]1(C)C=C2O[C@@H]3OC4(CCCCC4)O[C@@H]3C2=C2C(O)=CC=C(O)[C@]21C(=O)OC | > 68.1 µM (inactive) | > 68.1 µM (inactive) | > 68.1 µM (inactive) | > 68.1 µM (inactive) | > 68.1 µM (inactive) | > 68.1 µM (inactive) | > 68.1 µM (inactive) | > 68.1 µM (inactive) | > 68.1 µM (inactive)
16 | COc1ccccc1C1C(Cl)C(=O)N1NC(=O)Cc1ccccc1 (configuration not stated) | – | 37.5 µM (inactive) | 43.3 µM (inactive) | 75.9 µM (inactive) | > 100 µM (inactive) | > 100 µM (inactive) | – | > 100 µM (inactive) | > 100 µM (inactive)
17 | CCOC(=O)NC(=O)c1cn(CCCCCCCCCCC(=O)NCCCN2CCN(CCCNC(=O)CCCCCCCCCCn3cc(C(=O)NC(=O)OCC)c(=O)[nH]c3=O)CC2)c(=O)[nH]c1=O | > 100 µM (inactive) | > 100 µM (inactive) | > 100 µM (inactive) | > 100 µM (inactive) | > 100 µM (inactive) | > 100 µM (inactive) | – | > 100 µM (inactive) | > 100 µM (inactive)
18 | CC1=C(/C=C/C(C)=C/C2CC(N(C)C)=CC(=O)O2)C(C)(C)CCC1 (configuration not stated) | 15.3 µM (inactive) | 10.8 µM (inactive) | 13.4 µM (inactive) | – | 11.7 µM (inactive) | 14.3 µM (inactive) | 13.1 µM (inactive) | 19.5 µM (inactive) | 12.4 µM (inactive)
19 | Nc1nc(-c2ccc(Cl)c([N+](=O)[O-])c2)cs1 | > 100 µM (inactive) | 64.7 µM (inactive) | > 100 µM (inactive) | > 100 µM (inactive) | > 100 µM (inactive) | > 100 µM (inactive) | > 100 µM (inactive) | 52.5 µM (inactive) | 27.5 µM (inactive)
20 | CCOC(=O)C(C)c1cc(C2(C)OCCO2)c(C)o1 (configuration not stated) | > 100 µM (inactive) | > 100 µM (inactive) | > 100 µM (inactive) | > 100 µM (inactive) | > 100 µM (inactive) | > 100 µM (inactive) | > 100 µM (inactive) | > 100 µM (inactive) | > 100 µM (inactive)
21 | C/C(=N\NC(N)=S)c1ccc(/C(C)=N/NC(N)=S)cc1 | > 100 µM (inactive) | > 100 µM (inactive) | – | > 100 µM (inactive) | > 100 µM (inactive) | > 100 µM (inactive) | > 100 µM (inactive) | – | > 100 µM (inactive)
22 | Cc1c(C)c(CC(=O)N2CC2)c(C)c(C)c1CC(=O)N1CC1 | 17.5 µM (inactive) | 11.5 µM (inactive) | 2.18 µM (inactive) | 17.3 µM (inactive) | 14.1 µM (inactive) | 12.9 µM (inactive) | – | 13.7 µM (inactive) | –
23 | COC(=O)C(CCC1(C)OCCO1)=[N+]=[N-] | > 100 µM (inactive) | > 100 µM (inactive) | > 100 µM (inactive) | > 100 µM (inactive) | > 100 µM (inactive) | – | > 100 µM (inactive) | > 100 µM (inactive) | > 100 µM (inactive)
24 | COc1c(OC(C)=O)c(OC(C)=O)cc2c1-c1ccc(SC)c(=O)cc1C(NC(C)=O)CC2 (configuration not stated) | 0.908 µM (active) | – | 0.895 µM (active) | 0.7 µM (active) | 0.368 µM (active) | 0.57 µM (active) | – | 0.287 µM (active) | 1.04 µM (active)
25 | CCOC(=O)C1=C(C)N(NC(=O)Nc2ccccc2)C(=O)C1=P(c1ccccc1)(c1ccccc1)c1ccccc1 | 33.6 µM (inactive) | 32.2 µM (inactive) | 40.6 µM (inactive) | 40.6 µM (inactive) | 35.2 µM (inactive) | 32.6 µM (inactive) | – | – | 31.8 µM (inactive)
26 | CCOC(=O)N(c1ccccc1)N(CC)C(=O)/C(C)=N/Nc1ccc([N+](=O)[O-])cc1 | 15.4 µM (inactive) | 17.9 µM (inactive) | 15.6 µM (inactive) | 17.1 µM (inactive) | 16.6 µM (inactive) | 17.5 µM (inactive) | – | 20.8 µM (inactive) | 17.9 µM (inactive)
27 | c1cc(C2O[C@H]3CCCN3[C@@H]2c2ccncc2)ccn1 (some centres not stated) | > 100 µM (inactive) | > 100 µM (inactive) | > 100 µM (inactive) | > 100 µM (inactive) | > 100 µM (inactive) | > 100 µM (inactive) | – | > 100 µM (inactive) | > 100 µM (inactive)
28 | COc1ccc(C(O)c2cc(OC)c(OC)c(OC)c2)cc1 (configuration not stated) | 38.2 µM (inactive) | 6.84 µM (inactive) | 4.21 µM (inactive) | – | 40.9 µM (inactive) | 21 µM (inactive) | 30.1 µM (inactive) | 44.4 µM (inactive) | –
29 | COc1cc(/C=C(\C#N)C(N)=C(C#N)C#N)cc(O)c1O | > 100 µM (inactive) | 47 µM (inactive) | > 100 µM (inactive) | > 100 µM (inactive) | > 100 µM (inactive) | > 100 µM (inactive) | – | > 100 µM (inactive) | > 100 µM (inactive)
30 | C/C=C/C[C@@H](C)[C@@H](O)[C@H]1C(=O)N[C@@H](CC)C(=O)N(C)CC(=O)N(C)[C@@H](CC(C)C)C(=O)N[C@@H](C(C)C)C(=O)N(C)[C@@H](CC(C)C)C(=O)N[C@@H](C)C(=O)N[C@H](C)C(=O)N(C)[C@@H](CC(C)C)C(=O)N(C)[C@@H](CC(C)C)C(=O)N(C)[C@@H](C(C)C)C(=O)N1C [CYCLOSPORINE] | 5.32 µM (inactive) | 3.7 µM (inactive) | 4.7 µM (inactive) | 2.97 µM (inactive) | 6.89 µM (inactive) | 2.37 µM (inactive) | 1.98 µM (inactive) | 4.98 µM (inactive) | 3.96 µM (inactive)
